Source: patent US20260015353A1, “NOVEL COMPOUNDS” (Hoffmann-La Roche Inc., priority 2022, published 2026)

Tests used:
NLRP3 [1] = molecular target: T1, NLRP3 (Homo sapiens, UniProt Q96P20); assay: Human whole blood IL-1β release assay (LPS + nigericin, AlphaLisa); type: cell-based; set-up: Human whole blood in Li-heparin tubes was obtained from healthy donors; from tissue; host or cells: human whole blood from healthy donors, LPS-primed, nigericin-stimulated; details: 1 ug/ml LPS, compound 3 hours, nigericin 10 μM 1 hr, IL-1β in supernatant
T1 sequence (Q96P20 whole entry): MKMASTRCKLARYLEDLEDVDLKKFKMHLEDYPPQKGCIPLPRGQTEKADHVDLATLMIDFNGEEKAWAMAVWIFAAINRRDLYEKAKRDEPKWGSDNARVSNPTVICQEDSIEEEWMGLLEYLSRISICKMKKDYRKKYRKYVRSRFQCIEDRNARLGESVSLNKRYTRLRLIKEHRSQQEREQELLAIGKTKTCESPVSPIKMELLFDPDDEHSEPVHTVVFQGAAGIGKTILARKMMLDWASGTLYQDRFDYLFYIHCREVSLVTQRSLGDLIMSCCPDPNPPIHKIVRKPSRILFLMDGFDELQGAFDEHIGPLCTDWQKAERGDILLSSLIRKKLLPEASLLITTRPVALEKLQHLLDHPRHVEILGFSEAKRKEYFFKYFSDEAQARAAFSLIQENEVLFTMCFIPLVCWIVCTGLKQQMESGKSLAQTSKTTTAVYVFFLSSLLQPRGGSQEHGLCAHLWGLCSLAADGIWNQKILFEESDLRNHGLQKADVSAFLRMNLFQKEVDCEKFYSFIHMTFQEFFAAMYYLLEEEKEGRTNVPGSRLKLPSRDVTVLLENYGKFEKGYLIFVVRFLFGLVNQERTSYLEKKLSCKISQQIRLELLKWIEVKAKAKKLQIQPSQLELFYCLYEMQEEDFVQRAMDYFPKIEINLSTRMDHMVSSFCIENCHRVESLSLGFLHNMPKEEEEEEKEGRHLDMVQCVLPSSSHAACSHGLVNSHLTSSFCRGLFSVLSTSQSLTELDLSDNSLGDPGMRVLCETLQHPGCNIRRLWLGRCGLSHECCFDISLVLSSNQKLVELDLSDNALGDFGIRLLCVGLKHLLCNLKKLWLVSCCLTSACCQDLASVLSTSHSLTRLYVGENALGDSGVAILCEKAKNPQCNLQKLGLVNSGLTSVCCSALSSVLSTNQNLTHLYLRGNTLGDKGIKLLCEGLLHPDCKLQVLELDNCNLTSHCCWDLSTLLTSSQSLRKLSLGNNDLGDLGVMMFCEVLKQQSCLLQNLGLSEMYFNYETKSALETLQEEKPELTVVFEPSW
Protocol: For systemic delivery, the ability to inhibit NLRP3 when the compounds are present within the bloodstream is of great importance. For this reason, the NLRP3 inhibitory activity of a number of compounds in human whole blood was investigated in accordance with the following protocol.
Human whole blood in Li-heparin tubes was obtained from healthy donors from a volunteer donor panel. • 1. Plate out 80 μl of whole blood containing lug/ml of LPS in 96-well, clear bottom cell culture plate (Corning #3585) • 2. Add 10 μl compound (8 points half-log dilution with 10 μM top dose) or vehicle (DMSO 0.1% FAC) to the appropriate wells • 3. Incubate for 3 hours at 37° C., 5% CO2 • 4. Add 10 μl nigericin (Sigma #N7143) (10 μM FAC) to all wells • 5. Incubate for 1 hr at 37° C., 5% CO2 • 6. At the end of the incubation period, spin plates at 300×g for 5 mins to pellet cells and remove 20 μl of supernatant and add to 96-well v-bottom plates for IL-1β analysis (note: these plates containing the supernatants can be stored at −80° C. to be analysed at a later date) • 7. IL-1β was measured according to the manufacturer protocol (Perkin Elmer-AlphaLisa IL-1 Kit AL220F-5000) • 8. IC50 data is fitted to a non-linear regression equation (log inhibitor vs response-variable slope 4-parameters)

NLRP3 [2] = molecular target: T1, NLRP3; assay: THP-1 cells pyroptosis assay (LPS + nigericin, resazurin readout); type: cell-based; set-up: Seed THP-1 cells (25,000cells/well) containing 1.0 μg/ml LPS; host or cells: THP-1 cells, LPS-primed, nigericin-stimulated; details: 1.0 μg/ml LPS, compound 3 hours, nigericin 5 μM 1 hr
Protocol: THP-1 cells (ATCC #TIB-202) were grown in RPMI containing L-glutamine (Gibco #11835) supplemented with 1 mM sodium pyruvate (Sigma #S8636) and penicillin (100 units/ml)/streptomycin (0.1 mg/ml) (Sigma #P4333) in 10% Fetal Bovine Serum (FBS) (Sigma #F0804). The cells were routinely passaged and grown to confluency (˜10^6cells/ml). On the day of the experiment, THP-1 cells were harvested and resuspended into RPMI medium (without FBS). The cells were then counted and viability (>90%) checked by Trypan blue (Sigma #T8154). Appropriate dilutions were made to give a concentration of 625,000cells/ml. To this diluted cell solution was added LPS (Sigma #L4524) to give a lug/ml Final Assay Concentration (FAC). 40 μl of the final preparation was aliquoted into each well of a 96-well plate. The plate thus prepared was used for compound screening.
The following method step-by-step assay was followed for compound screening. • 1. Seed THP-1 cells (25,000cells/well) containing 1.0 μg/ml LPS in 40 μl of RPMI medium (without FBS) in 96-well, black walled, clear bottom cell culture plates coated with poly-D-lysine (VWR #734-0317) • 2. Add 5 μl compound (8 points half-log dilution, with 10 μM top dose) or vehicle (DMSO 0.1% FAC) to the appropriate wells • 3. Incubate for 3 hours at 37° C., 5% CO2 • 4. Add 5 μl nigericin (Sigma #N7143) (FAC 5 μM) to all wells • 5. Incubate for 1 hr at 37° C., 5% CO2 • 6. At the end of the incubation period, spin plates at 300×g for 3 mins and remove supernatant • 7. Then add 50 μl of resazurin (Sigma #R^7017) (FAC 100 μM resazurin in RPMI medium without FBS) and incubate plates for a further 1-2 hours at 37° C. and 5% CO2 • 8. Plates were read in an Envision reader at Ex 560 nm and Em 590 nm • 9. IC50 data is fitted to a non-linear regression equation (log inhibitor vs response-variable slope 4-parameters)

`CCN1CCC2CCN(c3nnc(-c4ccc5c(c4O)CCO5)c(C)n3)C2C1` (single isomer, unassigned) [Example 1A, 5-[3-[(3aS,7aR)-6-Ethyl-3,3a,4,5,7,7a-hexahydro-2H-pyrrolo[2,3-c]pyridin-1-yl]-5-methyl-1,2,4-triazin-6-yl]-2,3-dihydrobenzofuran-4-ol or 5-[3-[(3aR,7aS)-6-ethyl-3,3a,4,5,7,7a-hexahydro-2H-pyrrolo[2,3-c]pyridin-1-yl]-5-methyl-1,2,4-triazin-6-yl]-2,3-dihydrobenzofuran-4-ol] was tested, and the IC50 (NLRP3 [1]) was 0.012 µM and the IC50 (NLRP3 [2]) was 0.0018 µM.

In the case of `CCN1CC[C@H]2CCN(c3nnc(-c4ccc(C#N)cc4O)c(C)n3)[C@H]2C1` (single isomer, unassigned) [Example 2A, 4-[3-[(3aS,7aR)-6-Ethyl-3,3a,4,5,7,7a-hexahydro-2H-pyrrolo[2,3-c]pyridin-1-yl]-5-methyl-1,2,4-triazin-6-yl]-3-hydroxy-benzonitrile or 4-[3-[(3aR,7aS)-6-ethyl-3,3a,4,5,7,7a-hexahydro-2H-pyrrolo[2,3-c]pyridin-1-yl]-5-methyl-1,2,4-triazin-6-yl]-3-hydroxy-benzonitrile], the IC50 (NLRP3 [1]) is reported as 0.038 µM and the IC50 (NLRP3 [2]) is reported as 0.0364 µM.

For `Cc1nc(N2CCC3CCN(C)CC32)nnc1-c1ccc2c(c1O)CCO2` (single isomer, unassigned) [Example 3B, 5-[3-[(3aR,7aS)-6-Methyl-3,3a,4,5,7,7a-hexahydro-2H-pyrrolo[2,3-c]pyridin-1-yl]-5-methyl-1,2,4-triazin-6-yl]-2,3-dihydrobenzofuran-4-ol or 5-[3-[(3aS,7aR)-6-methyl-3,3a,4,5,7,7a-hexahydro-2H-pyrrolo[2,3-c]pyridin-1-yl]-5-methyl-1,2,4-triazin-6-yl]-2,3-dihydrobenzofuran-4-ol], the IC50 (NLRP3 [1]) was 0.115 µM and the IC50 (NLRP3 [2]) was 0.0522 µM.

`CCN1CCC2CCN(c3nnc(-c4ccc(C#N)cc4O)c(C)n3)C2C1` (single isomer, unassigned) [Example 2B, 4-[3-[(3aR,7aS)-6-Ethyl-3,3a,4,5,7,7a-hexahydro-2H-pyrrolo[2,3-c]pyridin-1-yl]-5-methyl-1,2,4-triazin-6-yl]-3-hydroxy-benzonitrile or 4-[3-[(3aS,7aR)-6-ethyl-3,3a,4,5,7,7a-hexahydro-2H-pyrrolo[2,3-c]pyridin-1-yl]-5-methyl-1,2,4-triazin-6-yl]-3-hydroxy-benzonitrile] showed an IC50 (NLRP3 [2]) of over 1 µM.

With `CCN1CCC2CCN(c3nnc(-c4ccc5c(c4O)CCO5)c(C)n3)C2C1` (single isomer, unassigned) [Example 1B, 5-[3-[(3aR,7aS)-6-Ethyl-3,3a,4,5,7,7a-hexahydro-2H-pyrrolo[2,3-c]pyridin-1-yl]-5-methyl-1,2,4-triazin-6-yl]-2,3-dihydrobenzofuran-4-ol or 5-[3-[(3aS,7aR)-6-ethyl-3,3a,4,5,7,7a-hexahydro-2H-pyrrolo[2,3-c]pyridin-1-yl]-5-methyl-1,2,4-triazin-6-yl]-2,3-dihydrobenzofuran-4-ol] the IC50 (NLRP3 [1]) was 0.375 µM and the IC50 (NLRP3 [2]) was 0.0644 µM.

`Cc1nc(N2CC[C@@H]3CCN(C)C[C@@H]32)nnc1-c1ccc2c(c1O)CCO2` (single isomer, unassigned) [Example 3A, 5-[3-[(3aS,7aR)-6-Methyl-3,3a,4,5,7,7a-hexahydro-2H-pyrrolo[2,3-c]pyridin-1-yl]-5-methyl-1,2,4-triazin-6-yl]-2,3-dihydrobenzofuran-4-ol or 5-[3-[(3aR,7aS)-6-methyl-3,3a,4,5,7,7a-hexahydro-2H-pyrrolo[2,3-c]pyridin-1-yl]-5-methyl-1,2,4-triazin-6-yl]-2,3-dihydrobenzofuran-4-ol] was tested, and the IC50 (NLRP3 [1]) was 0.007 µM and the IC50 (NLRP3 [2]) was 0.0019 µM.

In the case of `Cc1nc(N2CCC3CCN(C)CC32)nnc1-c1ccc(C#N)cc1O` (single isomer, unassigned) [Example 4B, 4-[3-[(3aR,7aS)-6-Methyl-3,3a,4,5,7,7a-hexahydro-2H-pyrrolo[2,3-c]pyridin-1-yl]-5-methyl-1,2,4-triazin-6-yl]-3-hydroxy-benzonitrile or 4-[3-[(3aS,7aR)-6-methyl-3,3a,4,5,7,7a-hexahydro-2H-pyrrolo[2,3-c]pyridin-1-yl]-5-methyl-1,2,4-triazin-6-yl]-3-hydroxy-benzonitrile], the IC50 (NLRP3 [2]) is reported as over 1 µM.

With `Cc1nc(N2CC[C@@H]3CCN(C)C[C@@H]32)nnc1-c1ccc(C#N)cc1O` (single isomer, unassigned) [Example 4A, 4-[3-[(3aS,7aR)-6-Methyl-3,3a,4,5,7,7a-hexahydro-2H-pyrrolo[2,3-c]pyridin-1-yl]-5-methyl-1,2,4-triazin-6-yl]-3-hydroxy-benzonitrile or 4-[3-[(3aR,7aS)-6-methyl-3,3a,4,5,7,7a-hexahydro-2H-pyrrolo[2,3-c]pyridin-1-yl]-5-methyl-1,2,4-triazin-6-yl]-3-hydroxy-benzonitrile] the IC50 (NLRP3 [1]) was 0.041 µM and the IC50 (NLRP3 [2]) was 0.0474 µM.
